Experimental data taken from patent US20220151229A1, “Synergistic Herbicidal Combinations” (Clariant International Ltd., priority 2019, published 2022).

Assays:
Assay type in all cases: in vivo
[1] = system: Solanum nigrum - SOLNI; test: Greenhouse post-emergence herbicide trial, Solanum nigrum
Excerpt: (§1) Standard post emergence herbicide application procedures were used, as described below, to apply inventive compounds in combination with sulfonylurea herbicides.
(§2) Seed of monocotyledonous and dicotyledonous harmful plants such as Brassica napus (BRSNW) Abutilon theophrasti (ABUTH), Alopecurus myosuroides (ALOMY), Amaranthus retroflexus (AMARE), Digitaria Sanguinalis (DIGSA), Echinochloa crus-galli (ECHCG), Erigeron canadensis (ERICA), Galium aparine (GALAP), Lolium perenne (LOLPE), Sectaria viridis (SETVI), Solanun nigrum (SOLNI), Viola arvensis (VIOAR) were sowed in 18 cm^2 pots. The plants were placed in a greenhouse under controlled environmental conditions, and sub-irrigation. About one week after emergence, seedlings were thinned as needed, including removal of any unhealthy or abnormal plants, to create a uniform series of test pots.
(§3) The plants were maintained for the duration of the test in the greenhouse, where they received a mean of 70 μmol m-2 s-1 of light per day/night. Temperatures averages about 24° C. during the day and about 20° C. during the night. Plants were sub-irrigated throughout the test to ensure adequate soil moisture levels.
(§4) Pots were assigned to different treatment in a randomized experimental design. A set of pots was left untreated as a reference against which effects of the treatments could later be evaluated. Application of tested formulations was made in a spray cabin model 01S-15E designed by CheckTec using the following parameters: • Two edge nozzle Lechler OC2, 200 L/ha, 3 bars. • Two edge nozzle Lechler OC3, 500 L/ha, 3 bars.
(§5) The distance of the nozzle from the plants was between 50 to 53 cm. and the nozzle spacing was 50 cm.
(§6) After treatment, pots were returned to the greenhouse until ready for evaluation. Evaluations were performed at different times after application (DAT: days after treatment), depending on the experiment.
(§7) For evaluation of herbicidal effectiveness, all plants in the test were examined by a single technician, who recorded percent control, a visual measurement of the effectiveness of each treatment by comparison with untreated plants. […] The reported % control values represent the average for all replicates of each treatment.
(§8) Iodosulfuron-methyl-sodium and Nicosulfuron were applied as dilutions of the active ingredient in water.

[2] = system: Lolium perenne - LOLPE; test: Greenhouse post-emergence herbicide trial, Lolium perenne; conditions: 200 L/ha
Excerpt: as §1, §2, §3, §4, §5, §6, §7, §8

[3] = system: Brassica napus - BRSNW; test: Greenhouse post-emergence herbicide trial, Brassica napus; conditions: 200 L/ha
Excerpt: as §1, §2, §3, §4, §5, §6, §7, §8

[4] = system: Sectaria Viridis - SETVI; test: Greenhouse post-emergence herbicide trial, Sectaria Viridis; conditions: 200 L/ha
Excerpt: as §1, §2, §3, §4, §5, §6, §7, §8

[5] = system: Galium aparine - GALAP; test: Greenhouse post-emergence herbicide trial, Galium aparine; conditions: 200 L/ha
Excerpt: as §1, §2, §3, §4, §5, §6, §7, §8

[6] = Iodosulfuron-methyl-sodium 10 g Al/ha, 1 DAT
[7] = Iodosulfuron-methyl-sodium 10 g Al/ha, 2 DAT
[8] = Iodosulfuron-methyl-sodium 10 g Al/ha, 7 DAT
[9] = Iodosulfuron-methyl-sodium 10 g Al/ha, 10 DAT
[10] = Iodosulfuron-methyl-sodium 10 g Al/ha, 16 DAT
[11] = Iodosulfuron-methyl-sodium 10 g Al/ha, 22 DAT
[12] = Iodosulfuron-methyl-sodium 10 g Al/ha, 28 DAT
[13] = Nicosulfuron 40 g Al/ha, 10 DAT
[14] = Nicosulfuron 40 g Al/ha, 16 DAT
[15] = Nicosulfuron 40 g Al/ha, 22 DAT
[16] = Nicosulfuron 40 g Al/ha, 28 DAT

COC(=O)c1ccc(I)cc1S(=O)(=O)[N-]C(=O)Nc1nc(C)nc(OC)n1.[Na+] [Iodosulfuron-methyl-sodium, reference compound]
Effectiveness control ([1]; 200 L/ha, Iodosulfuron-methyl-sodium 10 g Al/ha, 1 DAT): 0.00% | Effectiveness control ([1]; 200 L/ha, Iodosulfuron-methyl-sodium 10 g Al/ha, 2 DAT): 0.00% | Effectiveness control ([1]; 200 L/ha, Iodosulfuron-methyl-sodium 10 g Al/ha, 7 DAT): 0.00% | Effectiveness control ([1]; 200 L/ha, Iodosulfuron-methyl-sodium 10 g Al/ha, 15 DAT): 12.50% | Effectiveness control ([1]; 200 L/ha, Iodosulfuron-methyl-sodium 10 g Al/ha, 21 DAT): 13.75% | Effectiveness control ([1]; 500 L/ha, Iodosulfuron-methyl-sodium 10 g Al/ha, 1 DAT): 0.00% | Effectiveness control ([1]; 500 L/ha, Iodosulfuron-methyl-sodium 10 g Al/ha, 2 DAT): 0.000% | Effectiveness control ([1]; 500 L/ha, Iodosulfuron-methyl-sodium 10 g Al/ha, 7 DAT): 5.00% | Effectiveness control ([1]; 500 L/ha, Iodosulfuron-methyl-sodium 10 g Al/ha, 15 DAT): 25.00% | Effectiveness control ([1]; 500 L/ha, Iodosulfuron-methyl-sodium 10 g Al/ha, 21 DAT): 47.50% | Effectiveness control [2, 6]: 0.00% | Effectiveness control [2, 7]: 0.00% | Effectiveness control [2, 8]: 0.00% | Effectiveness control [2, 9]: 0.00% | Effectiveness control [2, 10]: 0.00% | Effectiveness control [2, 11]: 0.00% | Effectiveness control [2, 12]: 0.00% | Effectiveness control [3, 6]: 0.00% | Effectiveness control [3, 7]: 0.00% | Effectiveness control [3, 8]: 6.75% | Effectiveness control [3, 9]: 8.50% | Effectiveness control [3, 10]: 50.75% | Effectiveness control [3, 11]: 99.00% | Effectiveness control [3, 12]: 99.00%

COc1cc(OC)nc(NC(=O)NS(=O)(=O)c2ncccc2C(=O)N(C)C)n1 [Nicosulfuron, nicosulfuron, reference compound]
Effectiveness control ([4]; Nicosulfuron 40 g Al/ha, 1 DAT): 0.00% | Effectiveness control ([4]; Nicosulfuron 40 g Al/ha, 2 DAT): 0.00% | Effectiveness control ([4]; Nicosulfuron 40 g Al/ha, 7 DAT): 5.00% | Effectiveness control [4, 13]: 7.00% | Effectiveness control [4, 14]: 10.75% | Effectiveness control [4, 15]: 7.75% | Effectiveness control [4, 16]: 7.00% | Effectiveness control ([5]; Nicosulfuron 40 g Al/ha, 1 DAT): 0.00% | Effectiveness control ([5]; Nicosulfuron 40 g Al/ha, 2 DAT): 0.00% | Effectiveness control ([5]; Nicosulfuron 40 g Al/ha, 7 DAT): 3.00% | Effectiveness control [5, 13]: 10.00% | Effectiveness control [5, 14]: 12.75% | Effectiveness control [5, 15]: 12.75% | Effectiveness control [5, 16]: 12.75%

Pelargonic acid 6 EO ester methyl ether [A1]
Effectiveness control ([1]; 200 L/ha, A1 0.1 % w/w, 1 DAT): 0.00% | Effectiveness control ([1]; 200 L/ha, A1 0.1 % w/w, 2 DAT): 0.00% | Effectiveness control ([1]; 200 L/ha, A1 0.1 % w/w, 7 DAT): 0.00% | Effectiveness control ([1]; 200 L/ha, A1 0.1 % w/w, 15 DAT): 0.00% | Effectiveness control ([1]; 200 L/ha, A1 0.1 % w/w, 21 DAT): 0.00% | Effectiveness control ([1]; 200 L/ha, A1 2.5 % w/w, 1 DAT): 0.00% | Effectiveness control ([1]; 200 L/ha, A1 2.5 % w/w, 2 DAT): 0.00% | Effectiveness control ([1]; 200 L/ha, A1 2.5 % w/w, 7 DAT): 0.00% | Effectiveness control ([1]; 200 L/ha, A1 2.5 % w/w, 15 DAT): 0.00% | Effectiveness control ([1]; 200 L/ha, A1 2.5 % w/w, 21 DAT): 0.00% | Effectiveness control ([1]; 200 L/ha, A1 5 % w/w, 1 DAT): 0.75% | Effectiveness control ([1]; 200 L/ha, A1 5 % w/w, 2 DAT): 3.50% | Effectiveness control ([1]; 200 L/ha, A1 5 % w/w, 7 DAT): 3.50% | Effectiveness control ([1]; 200 L/ha, A1 5 % w/w, 15 DAT): 0.00% | Effectiveness control ([1]; 200 L/ha, A1 5 % w/w, 21 DAT): 0.00% | Effectiveness control ([1]; 200 L/ha, A1 10 % w/w, 1 DAT): 25.00% | Effectiveness control ([1]; 200 L/ha, A1 10 % w/w, 2 DAT): 48.50% | Effectiveness control ([1]; 200 L/ha, A1 10 % w/w, 7 DAT): 50.50% | Effectiveness control ([1]; 200 L/ha, A1 10 % w/w, 15 DAT): 47.50% | Effectiveness control ([1]; 200 L/ha, A1 10 % w/w, 21 DAT): 38.75% | Effectiveness control ([1]; 500 L/ha, A1 0.1 % w/w, 1 DAT): 0.00% | Effectiveness control ([1]; 500 L/ha, A1 0.1 % w/w, 2 DAT): 0.00% | Effectiveness control ([1]; 500 L/ha, A1 0.1 % w/w, 7 DAT): 0.00% | Effectiveness control ([1]; 500 L/ha, A1 0.1 % w/w, 15 DAT): 0.00% | Effectiveness control ([1]; 500 L/ha, A1 0.1 % w/w, 21 DAT): 0.00% | Effectiveness control ([1]; 500 L/ha, A1 2.5 % w/w, 1 DAT): 10.00% | Effectiveness control ([1]; 500 L/ha, A1 2.5 % w/w, 2 DAT): 21.25% | Effectiveness control ([1]; 500 L/ha, A1 2.5 % w/w, 7 DAT): 13.75% | Effectiveness control ([1]; 500 L/ha, A1 2.5 % w/w, 15 DAT): 7.75% | Effectiveness control ([1]; 500 L/ha, A1 2.5 % w/w, 21 DAT): 5.00% | Effectiveness control ([1]; 500 L/ha, A1 5 % w/w, 1 DAT): 26.00% | Effectiveness control ([1]; 500 L/ha, A1 5 % w/w, 2 DAT): 42.50% | Effectiveness control ([1]; 500 L/ha, A1 5 % w/w, 7 DAT): 32.50% | Effectiveness control ([1]; 500 L/ha, A1 5 % w/w, 15 DAT): 28.75% | Effectiveness control ([1]; 500 L/ha, A1 5 % w/w, 21 DAT): 27.50% | Effectiveness control ([1]; 500 L/ha, A1 10 % w/w, 1 DAT): 65.50% | Effectiveness control ([1]; 500 L/ha, A1 10 % w/w, 2 DAT): 75.50% | Effectiveness control ([1]; 500 L/ha, A1 10 % w/w, 7 DAT): 72.50% | Effectiveness control ([1]; 500 L/ha, A1 10 % w/w, 15 DAT): 63.75% | Effectiveness control ([1]; 500 L/ha, A1 10 % w/w, 21 DAT): 53.00% | Effectiveness control ([4]; A1 7.5 % w/w, 1 DAT): 19.25% | Effectiveness control ([4]; A1 7.5 % w/w, 2 DAT): 21.25% | Effectiveness control ([4]; A1 7.5 % w/w, 7 DAT): 21.25% | Effectiveness control ([4]; A1 7.5 % w/w, 10 DAT): 20.00% | Effectiveness control ([4]; A1 7.5 % w/w, 16 DAT): 16.00% | Effectiveness control ([4]; A1 7.5 % w/w, 22 DAT): 16.00% | Effectiveness control ([4]; A1 7.5 % w/w, 28 DAT): 0.00% | Effectiveness control ([2]; A1 7.5 % w/w, 1 DAT): 11.50% | Effectiveness control ([2]; A1 7.5 % w/w, 2 DAT): 11.50% | Effectiveness control ([2]; A1 7.5 % w/w, 7 DAT): 5.00% | Effectiveness control ([2]; A1 7.5 % w/w, 10 DAT): 0.00% | Effectiveness control ([2]; A1 7.5 % w/w, 16 DAT): 0.00% | Effectiveness control ([2]; A1 7.5 % w/w, 22 DAT): 0.00% | Effectiveness control ([2]; A1 7.5 % w/w, 28 DAT): 0.00% | Effectiveness control ([3]; A1 7.5 % w/w, 1 DAT): 74.25% | Effectiveness control ([3]; A1 7.5 % w/w, 2 DAT): 78.00% | Effectiveness control ([3]; A1 7.5 % w/w, 7 DAT): 75.00% | Effectiveness control ([3]; A1 7.5 % w/w, 10 DAT): 56.25% | Effectiveness control ([3]; A1 7.5 % w/w, 16 DAT): 39.25% | Effectiveness control ([3]; A1 7.5 % w/w, 22 DAT): 33.50% | Effectiveness control ([3]; A1 7.5 % w/w, 28 DAT): 32.50% | Effectiveness control ([5]; A1 7.5 % w/w, 1 DAT): 31.75% | Effectiveness control ([5]; A1 7.5 % w/w, 2 DAT): 34.00% | Effectiveness control ([5]; A1 7.5 % w/w, 7 DAT): 35.75% | Effectiveness control ([5]; A1 7.5 % w/w, 10 DAT): 20.00% | Effectiveness control ([5]; A1 7.5 % w/w, 16 DAT): 10.75% | Effectiveness control ([5]; A1 7.5 % w/w, 22 DAT): 10.75% | Effectiveness control ([5]; A1 7.5 % w/w, 28 DAT): 10.75%
